Experimental data published in patent publication EP1203770A1 (priority 1992, dated 1994).

Molecular target: T1, HIV-1 protease (Human immunodeficiency virus type 1 group M subtype B, UniProt P04585)
T1 construct: The protease (or proteinase), consisting of only 99 amino acids, is among the smallest enzymes known
Experiment: In vitro HIV protease inhibitory assay (HIV Protease FITC Assay)
Format: biochemical
Details: for inhibition at 0.123 µM: HIV-1 Dose 0.123 uM; for inhibition at 0.123 µM / inhibition at 0.37 µM / inhibition at 1.1 µM / inhibition at 3.3 µM / inhibition at 10 µM / inhibition at 30 µM / inhibition at 100 µM: read-out: HIV-1 Protease % Inhib; for inhibition at 0.37 µM: HIV-1 Dose 0.370 uM; for inhibition at 1.1 µM: HIV-1 Dose 1.100 uM; for inhibition at 3.3 µM: HIV-1 Dose 3.300 uM; for inhibition at 10 µM: HIV-1 Dose 10.000 uM; for inhibition at 30 µM: HIV-1 Dose 30.000 uM; for inhibition at 100 µM: HIV-1 Dose 100.000 uM; for Ki: read-out: HIV-1 FITC Ki
How it was run: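 Percent inhibition was read as fluorescence after avidin-bead capture and filtration separated FITC cleavage product from biotinylated substrate. Enzyme and substrate reacted 1 h, RT, dark, at pH 5.5 (0.1 M sodium acetate, 1.0 M NaCl, 0.05% NP-40).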

Compound | inhibition at 0.123 µM | inhibition at 0.37 µM | inhibition at 1.1 µM | inhibition at 3.3 µM | inhibition at 10 µM | inhibition at 30 µM | inhibition at 100 µM | Ki
O=c1oc(CC2CCCC2)cc(O)c1C(c1ccccc1)C1CC1 (stereo not drawn) [Example 143, 6-(Cyclopentylmethyl)-3-(cyclopropylphenylmethyl)-4-hydroxy-2H-pyran-2-one] | < 10% | < 10% | 25.1% | 57.9% | 83.1% | 93.8% | – | –
O=c1oc(CC2CCOCC2)cc(O)c1C(c1ccccc1)C1CC1 (stereo not drawn) [Example 144, 3-(Cyclopropylphenylmethyl)-4-hydroxy-6-[(tetrahydro-2H-pyran-4-yl)methyl]-2H-pyran-2-one] | < 10% | < 10% | < 10% | < 10% | < 10% | 22.7% | – | –
O=c1oc(CCCF)cc(O)c1C(c1ccccc1)C1CC1 (stereo not drawn) [Example 145, 3-(Cyclopropylphenylmethyl)-6-(3-fluoropropyl)-4-hydroxy-2H-pyran-2-one] | < 10% | < 10% | < 10% | 26.6% | 59.7% | 84.4% | – | –
CCC(c1cc(O)c(C(c2ccccc2)C2CC2)c(=O)o1)C(O)c1ccccc1 (stereo not drawn) [Example 146, 3-(α-cyclopropylbenzyl)-4-hydroxy-6-(α-ethyl-β-hydroxyphenethyl)-2H-pyran-2-one] | 36.4% | 73.6% | 82.7% | 87.7% | 91.2% | 95.2% | – | –
Cc1ccc(C(O)Cc2cc(O)c(C(c3ccccc3)C3CC3)c(=O)o2)cc1 (stereo not drawn) [Example 147, 3-(α-cyclopropylbenzyl)-4-hydroxy-6-(β-hydroxy-p-methylphenethyl)-2H-pyran-2-one] | < 10% | < 10% | 28.9% | 52.6% | 78.1% | 89.2% | 114% | –
O=c1oc(CC(O)c2ccc(F)cc2)cc(O)c1C(c1ccccc1)C1CC1 (stereo not drawn) [Example 148, 3-(α-cyclopropylbenzyl)-4-hydroxy-6-(β-hydroxy-p-fluorophenethyl)-2H-pyran-2-one] | < 10% | 22.4% | 52% | 80.3% | 91.9% | 89.7% | 130% | 161 nM
O=c1oc(CC(O)c2ccc(Cl)cc2)cc(O)c1C(c1ccccc1)C1CC1 (stereo not drawn) [Example 149, 3-(α-cyclopropylbenzyl)-4-hydroxy-6-(β-hydroxy-p-chlorophenethyl)-2H-pyran-2-one] | < 10% | 19.7% | 46.9% | 73.5% | 98.5% | 103% | 117% | 267 nM
O=c1oc(CC(O)c2cccc(Cl)c2)cc(O)c1C(c1ccccc1)C1CC1 (stereo not drawn) [Example 150, 3-(α-cyclopropylbenzyl)-4-hydroxy-6-(β-hydroxy-m-chlorophenethyl)-2H-pyran-2-one] | < 10% | 13.3% | 25.4% | 54.1% | 75.2% | 91% | 113% | –
O=c1oc(CC(O)c2ccccc2Cl)cc(O)c1C(c1ccccc1)C1CC1 (stereo not drawn) [Example 151, 3-(α-cyclopropylbenzyl)-4-hydroxy-6-(β-hydroxy-o-chlorophenethyl)-2H-pyran-2-one] | < 10% | < 10% | 19.1% | 39.8% | 70.1% | 88.4% | 113% | –
O=c1oc(CC(O)c2ccoc2)cc(O)c1C(c1ccccc1)C1CC1 (stereo not drawn) [Example 152, 3-(α-cyclopropylbenzyl)-4-hydroxy-6-(2-(furan-3-yl)-2-hydroxyethyl)-2H-pyran-2-one] | < 10% | < 10% | 26.4% | 48.8% | 77.6% | 90.5% | 110% | –
O=c1oc(CC(O)c2ccsc2)cc(O)c1C(c1ccccc1)C1CC1 (stereo not drawn) [Example 153, 3-(α-cyclopropylbenzyl)-4-hydroxy-6-(2-(thiophen-3-yl)-2-hydroxyethyl)-2H-pyran-2-one] | < 10% | 17.7% | 40.3% | 69% | 88.6% | 99.7% | 120% | –
CCC(Cc1ccc(F)cc1)c1cc(O)c(C(c2ccccc2)C2CC2)c(=O)o1 (stereo not drawn) [Example 154, 3-(α-cyclopropylbenzyl)-4-hydroxy-6-(α-ethyl-p-flurorphenethyl)-2H-pyran-2-one] | 21.9% | 57.3% | 84.1% | 86.7% | 98.1% | 92.9% | – | 39 nM
CCC(Cc1ccc(Cl)cc1)c1cc(O)c(C(c2ccccc2)C2CC2)c(=O)o1 (stereo not drawn) [Example 155, 3-(α-cyclopropylbenzyl)-4-hydroxy-6-(α-ethyl-p-chlorophenethyl)-2H-pyran-2-one] | 27.6% | 46% | 79.9% | 92.8% | 97.2% | 93.5% | 111% | 66 nM
CCC(Cc1cccc(Cl)c1)c1cc(O)c(C(c2ccccc2)C2CC2)c(=O)o1 (stereo not drawn) [Example 156, 3-(α-cyclopropylbenzyl)-4-hydroxy-6-(α-ethyl-m-chlorophenethyl)-2H-pyran-2-one] | < 10% | 24.2% | 64.4% | 82.6% | 87.3% | 92.3% | – | 65 nM
CCC(Cc1ccccc1Cl)c1cc(O)c(C(c2ccccc2)C2CC2)c(=O)o1 (stereo not drawn) [Example 157, 3-(α-cyclopropylbenzyl)-4-hydroxy-6-(α-ethyl-o-chlorophenethyl)-2H-pyran-2-one] | < 10% | 17.6% | 42.2% | 69% | 83.5% | 84.9% | – | –
CCC(Cc1ccc(Br)cc1)c1cc(O)c(C(c2ccccc2)C2CC2)c(=O)o1 (stereo not drawn) [Example 158, 3-(α-cyclopropylbenzyl)-4-hydroxy-6-(α-ethyl-p-bromophenethyl)-2H-pyran-2-one] | 15.7% | 44.2% | 70.5% | 87% | 100% | 96.1% | 115% | 55 nM
CCC(Cc1cccc(Br)c1)c1cc(O)c(C(c2ccccc2)C2CC2)c(=O)o1 (stereo not drawn) [Example 159, 3-(α-cyclopropylbenzyl)-4-hydroxy-6-(α-ethyl-m-bromophenethyl)-2H-pyran-2-one] | < 10% | 20.6% | 56.4% | 76.2% | 92.3% | 95.1% | – | 207 nM
CCC(Cc1ccc(C(F)(F)F)cc1)c1cc(O)c(C(c2ccccc2)C2CC2)c(=O)o1 (stereo not drawn) [Example 160, 3-(α-cyclopropylbenzyl)-4-hydroxy-6-(α-ethyl-p-triflurormethylphenethyl)-2H-pyran-2-one] | < 10% | 12.2% | 39.4% | 78.2% | 89.7% | 92.1% | – | –
CCC(Cc1cccc(C(F)(F)F)c1)c1cc(O)c(C(c2ccccc2)C2CC2)c(=O)o1 (stereo not drawn) [Example 161, 3-(α-cyclopropylbenzyl)-4-hydroxy-6-(α-ethyl-m-triflurormethylphenethyl)-2H-pyran-2-one] | < 10% | < 10% | 41.8% | 78% | 96.5% | 105% | – | –
CCC(Cc1ccccc1C(F)(F)F)c1cc(O)c(C(c2ccccc2)C2CC2)c(=O)o1 (stereo not drawn) [Example 162, 3-(α-cyclopropylbenzyl)-4-hydroxy-6-(α-ethyl-o-triflurormethylphenethyl)-2H-pyran-2-one] | < 10% | < 10% | < 10% | 34.4% | 52% | 72.3% | – | –
CCC(Cc1ccc(OC)cc1)c1cc(O)c(C(c2ccccc2)C2CC2)c(=O)o1 (stereo not drawn) [Example 163, 3-(α-cyclopropylbenzyl)-4-hydroxy-6-(α-ethyl-p-methoxyphenethyl)-2H-pyran-2-one] | < 10% | 30.8% | 65.6% | 88.7% | 101% | 98.4% | – | 172 nM
CCC(Cc1cccc(OC)c1)c1cc(O)c(C(c2ccccc2)C2CC2)c(=O)o1 (stereo not drawn) [Example 164, 3-(α-cyclopropylbenzyl)-4-hydroxy-6-(α-ethyl-m-methoxyphenethyl)-2H-pyran-2-one] | < 10% | 16.5% | 50% | 68.8% | 84.8% | 88.2% | – | 185 nM
